Test results reported in patent publication US6764999B2, “Nasal delivery of parasiticides” (priority 2002, dated 2004).

Key:
[1] = topical, 500 micrograms per kilogram body weight; cited from earlier work
Haemonchus contortus = details: cited from earlier work
[2] = serum levels of ivermectin after administration to the nasal pharynx; assay type: in vivo, beef steers
Procedure: To study the dose/response efficacy of nasal administration of macrocyclic lactone parasicides, three (3) beef steers of mixed breeding were used to evaluate three treatments. These three treatments were:
Treatments were applied and cattle were bled via jugular venipuncture at 0, 6, 24, 48, and 96 hours post-dosing.
Table I recites serum levels of ivermectin, in nanograms per milliliter, for the three treatments recited above at 0, 6, 24, 48, and 96 hours post dosing by nasal administration. Each treatment included delivering a 1 ml mixture comprising ivermectin and propylene glycol to the nasal pharnyx of the animal.

[3] = test system: Trichostrongylus colubriformis; details: cited from earlier work
[4] = autoclave temperatures; cited from earlier work
[5] = injection, about 200 micrograms per kilogram of bodyweight; cited from earlier work
most parasites = details: cattle; cited from earlier work

Q: With ivermectin as the substance, how does the CMAX [1] read?
A: 12.2 ng/mL

Q: And the “inhibition of pharyngeal pumping compared with motility” value (Haemonchus contortus)?
A: more potent inhibition of pharyngeal pumping than motility

Q: What about the “serum level of ivermectin” value ([2]; Treatment 1, nasal, about 248 μg/kg in propylene glycol, 0 Hours) of the same substance?
A: 0.19 nanograms per milliliter

Q: What about the “serum level of ivermectin” value ([2]; Treatment 1, nasal, about 248 μg/kg in propylene glycol, 6 Hours) of the same substance?
A: 5.87 nanograms per milliliter

Q: And the “serum level of ivermectin” value ([2]; Treatment 1, nasal, about 248 μg/kg in propylene glycol, 24 Hours)?
A: 15.24 nanograms per milliliter

Q: And the “serum level of ivermectin” value ([2]; Treatment 1, nasal, about 248 μg/kg in propylene glycol, 48 Hours)?
A: 11.22 nanograms per milliliter

Q: What about the “serum level of ivermectin” value ([2]; Treatment 1, nasal, about 248 μg/kg in propylene glycol, 96 Hours) of the same substance?
A: 7.58 nanograms per milliliter

Q: And the “maximum serum level CMAX(1)” value ([2]; Treatment 1, nasal, about 248 micrograms per kilogram body weight)?
A: about 15 nanograms of ivermectin per ml of blood

Q: What about the “CMAX(1)” value ([2]; Treatment 1, nasal, about 248 micrograms per kilogram, as restated) of the same substance?
A: greater than 15 ng/ml

Q: What about the “serum level of ivermectin” value ([2]; Treatment 2, nasal, about 409 μg/kg in propylene glycol, 0 Hours) of the same substance?
A: 0.21 nanograms per milliliter

Q: What about the “serum level of ivermectin” value ([2]; Treatment 2, nasal, about 409 μg/kg in propylene glycol, 6 Hours) of the same substance?
A: 6.58 nanograms per milliliter

Q: And the “serum level of ivermectin” value ([2]; Treatment 2, nasal, about 409 μg/kg in propylene glycol, 24 Hours)?
A: 24.48 nanograms per milliliter

Q: What about the “serum level of ivermectin” value ([2]; Treatment 2, nasal, about 409 μg/kg in propylene glycol, 48 Hours) of the same substance?
A: 19.71 nanograms per milliliter

Q: And the “serum level of ivermectin” value ([2]; Treatment 2, nasal, about 409 μg/kg in propylene glycol, 96 Hours)?
A: 13.88 nanograms per milliliter

Q: What about the “maximum serum level CMAX(2)” value ([2]; Treatment 2, nasal, about 409 micrograms per kilogram body weight) of the same substance?
A: about 24 nanograms of ivermectin per ml of blood

Q: And the “serum level of ivermectin” value ([2]; Treatment 3, nasal, about 872 μg/kg in propylene glycol, 0 Hours)?
A: 0.22 nanograms per milliliter

Q: What about the “serum level of ivermectin” value ([2]; Treatment 3, nasal, about 872 μg/kg in propylene glycol, 6 Hours) of the same substance?
A: 22.51 nanograms per milliliter

Q: What about the “serum level of ivermectin” value ([2]; Treatment 3, nasal, about 872 μg/kg in propylene glycol, 24 Hours) of the same substance?
A: 40.79 nanograms per milliliter

Q: What about the “serum level of ivermectin” value ([2]; Treatment 3, nasal, about 872 μg/kg in propylene glycol, 48 Hours) of the same substance?
A: 30.53 nanograms per milliliter

Q: What about the “serum level of ivermectin” value ([2]; Treatment 3, nasal, about 872 μg/kg in propylene glycol, 96 Hours) of the same substance?
A: 19.38 nanograms per milliliter

Q: What about the “maximum serum level CMAX(3)” value ([2]; Treatment 3, nasal, about 872 micrograms per kilogram body weight) of the same substance?
A: about 41 nanograms of ivermectin per ml of blood

Q: And the “time for which serum levels of ivermectin exceed 2 ng ml^−1” value ([2]; all three treatments, nasal)?
A: > 96 h

Q: What about the “inhibition of pharyngeal pumping compared with motility” value [3] of the same substance?
A: more potent inhibition of pharyngeal pumping than motility

Q: What about the thermal stability [4] of the same substance?
A: subject to decomposition at autoclave temperatures

Q: What about the CMAX serum level [5] of the same substance?
A: about 30 ng/ml

Q: What about the “serum level sufficient to protect the animal against reinfestation of most parasites” value (most parasites) of the same substance?
A: > 2 ng/mL
